Laboratory results published in patent US10611740B2, “Aryl dihydro-2H-benzo[b][1,4]oxazine sulfonamide and related compounds for use as agonists of RORγ and the treatment of disease” (Lycera Corporation, priority 2015, dated 2020).

Biological target: T1, Gal4-RORγ-LBD (Homo sapiens, UniProt P51449)
T1 construct: expressed in transfected cells; host or cells: HEK-293 cells (pcDNA3.1neo plasmid)
T1 sequence (P51449 269-508 limits assumed): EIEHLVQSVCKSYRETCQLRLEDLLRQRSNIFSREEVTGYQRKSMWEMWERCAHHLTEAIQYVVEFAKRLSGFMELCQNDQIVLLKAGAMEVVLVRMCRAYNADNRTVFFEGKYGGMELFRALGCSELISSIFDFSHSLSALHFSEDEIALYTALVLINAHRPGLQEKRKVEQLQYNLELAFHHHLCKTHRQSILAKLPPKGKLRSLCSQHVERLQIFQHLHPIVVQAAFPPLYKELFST
Assay: Gal4-RORγ Luciferase Reporter Assay in HEK-293T Cells
Type: cell-based
Conditions: HEK-293 cells
Method: Assay procedures and results are described below.
In the following protocol, HEK-293 cells were transfected with a construct comprising the Gal4 DNA binding domain fused to the ligand binding domain of RORγ (Gal4-RORγ-LBD) in a pcDNA3.1neo plasmid, and also with a reporter construct comprising pGL4.31 Gal4-luciferase (Promega). Control cells were prepared similarly using empty pcDNA3.1neo and pGL4.31 vectors.
Trans-IT reagent (Mirus, 60 μL) at room temperature was added drop wise to OptiMEM (Invitrogen, 1.5 ml). This reagent mixture was mixed by inversion then incubated for 5 to 30 minutes at room temperature. It then was added to a solution of both expression vectors (5 μg each), mixed, and incubated at room temperature for about 20 minutes. HEK-293 cells were harvested from incubation flasks by removing the media, treating with TrypLE Express (Invitrogen), and incubating until the cells detached from the bottom of the flask (approximately 2-5 minutes). 10 Million cells were collected by centrifugation and re-suspended in 10 mL of Dulbecco's Modified Eagle Medium, High Glucose (DMEM, Invitrogen) containing 10% Fetal Bovine Serum and 100 IU each of penicillin and streptomycin. The re-suspended cells and the transfection mixture were added to a T75 flask, mixed and incubated overnight at 37° C. and 5% CO2.
The cells were harvested as described above, counted, and centrifuged to obtain the desired number of cells, then re-suspended in complete growth media at 0.75×10^6 cells/mL. The RORγ antagonist, ursolic acid, was added to the cells at a final concentration of 2 μM. Cells were plated at 20 μL of cell suspension/well (10,000-15,000 cells/well) in white tissue culture treated 384 well plates. Test compounds were dissolved at 10 mM in DMSO then diluted into complete growth medium to 5× the final intended test concentration. These drug stock solutions, 5 μL/well were added to the tissue culture plate. The final DMSO concentration was 0.2%. The plates were briefly centrifuged then incubated overnight at 37° C. and 5% CO2. To conduct the assay, the tissue culture plates were allowed to equilibrate to room temperature and One-Glo luciferase reagent (Promega, 25 μL/well) was added. The plates were briefly centrifuged then incubated at room temperature for 10 minutes. The luciferase intensity was read on an Envision plate reader (Perkin Elmer). […] The luciferase signal in the absence of ursolic acid or test compound is defined at 100. The Max Response is the upper plateau in the signal as determined by line-fit using a 4-parameter logistic model in PRISM (GraphPad).

[1] = luciferase reporter, with 2 μM ursolic acid

Row | EC50 (2 μM ursolic acid) | EC50 [1] | Structure (SMILES) | Gal4-RORγ Assay Max Response (2 μM ursolic acid) | Gal4-RORγ Assay Max Response [1]
1 | < 0.5 µM |  | O=C(O)C1(C[C@H]2CN(S(=O)(=O)c3cccc(C(F)(F)F)c3)c3cc(-c4cccc(F)c4F)ccc3O2)CCOCC1 [Compound 78P, (S)-4-((6-(2,3-difluorophenyl)-4-((3-(trifluoromethyl)phenyl)-sulfonyl)-3,4-dihydro-2H-benzo[b][1,4]oxazin-2-yl)methyl)tetrahydro-2H-pyran-4-carboxylic acid] | ** (The symbol “**” indicates a value in the range of greater than 90 to 150) | 
2 | < 0.5 µM |  | CC(=O)N[C@H]1C[C@H]([C@H]2CN(S(=O)(=O)c3cccc(C(F)(F)F)c3)c3cc(-c4cc(F)ccc4F)ccc3O2)C1 [Compound 60M, N-((1S,3r)-3-((S)-6-(2,5-difluorophenyl)-4-((3-(trifluoro-methyl)phenyl)sulfonyl)-3,4-dihydro-2H-benzo[b][1,4]-oxazin-2-yl)cyclobutyl)-acetamide] | ** (The symbol “**” indicates a value in the range of greater than 90 to 150) | 
3 | 0.5 to 5 µM |  | O=C(O)[C@]1(C[C@H]2CN(S(=O)(=O)c3cccc(C(F)(F)F)c3)c3cc(-c4cc(F)cc(OC(F)F)c4)ccc3O2)C[C@](O)(CO)C1 [Compound 87, (1r,3R)-1-(((S)-6-(3-(difluoromethoxy)-5-fluorophenyl)-4-((3-(trifluoromethyl)phenyl)sulfonyl)-3,4-dihydro-2H-benzo[b][1,4]oxazin-2-yl)methyl)-3-hydroxy-3-(hydroxymethyl)cyclobutane-1-carboxylic acid] | ** (The symbol “**” indicates a value in the range of greater than 90 to 150) | 
4 | < 0.5 µM |  | O=C(O)C1(C[C@H]2CN(S(=O)(=O)c3cccc(C(F)(F)F)c3)c3cc(-c4cccc(F)c4Cl)ccc3O2)CCOCC1 [Compound 78M, (S)-4-((6-(2-chloro-3-fluoro-phenyl)-4-((3-(trifluoromethyl)-phenyl)sulfonyl)-3,4-dihydro-2H-benzo[b][1,4]oxazin-2-yl)methyl)tetrahydro-2H-pyran-4-carboxylic acid] | *** (The symbol “***” indicates a value in the range of greater than 150 to 200) | 
5 | 0.5 to 5 µM |  | C[C@]1(C(=O)O)C[C@H](C[C@H]2CN(S(=O)(=O)c3cccc(C(F)(F)F)c3)c3cc(-c4cc(F)cc(OC(F)F)c4)ccc3O2)C1 [Compound 69, (1S,3r)-3-(((S)-6-(3-(difluoromethoxy)-5-fluorophenyl)-4-((3-(trifluoromethyl)phenyl)sulfonyl)-3,4-dihydro-2H-benzo[b][1,4]oxazin-2-yl)methyl)-1-methylcyclobutane-1-carboxylic acid] | ** (The symbol “**” indicates a value in the range of greater than 90 to 150) | 
6 | < 0.5 µM |  | O=C(O)C1(C[C@H]2CN(S(=O)(=O)c3cccc(C(F)(F)F)c3)c3cc(-c4cccc(OC(F)(F)F)c4)ccc3O2)CCOCC1 [Compound 78K, (S)-4-((6-(3-(trifluoromethoxy)-phenyl)-4-((3-(trifluoromethyl)-phenyl)sulfonyl)-3,4-dihydro-2H-benzo[b][1.4]oxazin-2-yl)methyl)tetrahydro-2H-pyran-4-carboxylic acid] | ** (The symbol “**” indicates a value in the range of greater than 90 to 150) | 
7 | < 0.5 µM |  | COc1cc(F)c(F)c(-c2ccc3c(c2)N(S(=O)(=O)c2cccc(C(F)(F)F)c2)C[C@H](CC2(C(=O)O)CCOCC2)O3)c1 [Compound 78U, (S)-4-((6-(2,3-difluoro-5-methoxyphenyl)-4-((3-(trifluoromethyl)phenyl)sulfonyl)-3,4-dihydro-2H-benzo[b][1,4]oxazin-2-yl)methyl)tetrahydro-2H-pyran-4-carboxylic acid] | ** (The symbol “**” indicates a value in the range of greater than 90 to 150) | 
8 |  | 0.5 to 5 µM | COc1ccnc(-c2ccc3c(c2)N(S(=O)(=O)c2cccc(C(F)(F)F)c2)C[C@H](CCC(=O)O)O3)n1 [Compound 4C, (S)-3-(6-(4-methoxypyrimidin-2-yl)-4-((3-(trifluoromethyl)-phenyl)sulfonyl)-3,4-dihydro-2H-benzo[b][1,4]oxazin-2-yl)propanoic acid] |  | ** (The symbol “**” indicates a value in the range of greater than 90 to 150)
9 | 0.5 to 5 µM |  | CC(C)(O[C@@H]1Cc2ccc(-c3cc(F)ccc3F)cc2N(S(=O)(=O)c2cccc(C(F)(F)F)c2)C1)C(=O)O [Compound 83B, (R)-2-((7-(2,5-difluorophenyl)-1-((3-(trifluoromethyl)phenyl)sulfonyl)-1,2,3,4-tetrahydroquinolin-3-yl)oxy)-2-methylpropanoic acid] | ** (The symbol “**” indicates a value in the range of greater than 90 to 150) | 
10 | < 0.5 µM |  | O=C(O)C1(C[C@H]2CN(S(=O)(=O)c3cccc(C(F)(F)F)c3)c3cc(-c4cc(Cl)cc(F)c4F)ccc3O2)CCOCC1 [Compound 78W, (S)-4-((6-(5-chloro-2,3-difluorophenyl)-4-((3-(trifluoromethyl)phenyl)sulfonyl)-3,4-dihydro-2H-benzo[b][1,4]oxazin-2-yl)methyl)tetrahydro-2H-pyran-4-carboxylic acid] | ** (The symbol “**” indicates a value in the range of greater than 90 to 150) | 
11 | < 0.5 µM |  | O=C(O)C1(C[C@H]2CN(S(=O)(=O)c3cc(F)cc(C(F)(F)F)c3)c3cc(-c4cc(F)cc(OC(F)F)c4)ccc3O2)COC1 [Compound 51I, (S)-3-((6-(3-(difluoromethoxy)-5-fluorophenyl)-4-((3-fluoro-5-(trifluoromethyl)phenyl)sulfonyl)-3,4-dihydro-2H-benzo[b][1,4]-oxazin-2-yl)methyl)oxetane-3-carboxylic acid] | * (The symbol “*” indicates a value in the range of 25 to 90) | 
12 | < 0.5 µM |  | CC(=O)N[C@H]1C[C@@H]([C@H]2CN(S(=O)(=O)c3cccc(C(F)(F)F)c3)c3cc(-c4cc(F)ccc4F)ccc3O2)C1 [Compound 60L, N-((1R,3s)-3-((S)-6-(2,5-difluorophenyl)-4-((3-(trifluoro-methyl)phenyl)sulfonyl)-3,4-dihydro-2H-benzo[b][1,4]-oxazin-2-yl)cyclobutyl)-acetamide] | ** (The symbol “**” indicates a value in the range of greater than 90 to 150) | 
13 | < 0.5 µM |  | O=C(O)C1(C[C@H]2CN(S(=O)(=O)c3cc(F)cc(C(F)(F)F)c3)c3cc(-c4cc(F)ccc4F)ccc3O2)COC1 [Compound 51G, (S)-3-((6-(2,5-difluorophenyl)-4-((3-fluoro-5-(trifluoromethyl)-phenyl)sulfonyl)-3,4-dihydro-2H-benzo[b][1,4]oxazin-2-yl)methyl)oxetane-3-carboxylic acid] | ** (The symbol “**” indicates a value in the range of greater than 90 to 150) | 
14 | 0.5 to 5 µM |  | O=C(O)CO[C@@H]1Cc2ccc(-c3cc(F)cc(OC(F)F)c3)cc2N(S(=O)(=O)c2cccc(C(F)(F)F)c2)C1 [Compound 83E, (R)-2-((7-(3-(difluoromethoxy)-5-fluorophenyl)-1-((3-(trifluoro-methyl)phenyl)sulfonyl)-1,2,3,4-tetrahydroquinolin-3-yl)oxy)acetic acid] | * (The symbol “*” indicates a value in the range of 25 to 90) | 
15 | < 0.5 µM |  | O=C(O)C1(C[C@H]2CN(S(=O)(=O)c3cncc(C(F)(F)F)c3)c3cc(-c4cc(F)cc(OC(F)F)c4)ccc3O2)COC1 [Compound 51L, (S)-3-((6-(3-(difluoromethoxy)-5-fluorophenyl)-4-((5-(trifluoro-methyl)pyridin-3-yl)sulfonyl)-3,4-dihydro-2H-benzo[b][1,4]oxazin-2-yl)methyl)oxetane-3-carboxylic acid] | ** (The symbol “**” indicates a value in the range of greater than 90 to 150) | 
